Among the test systems are COLO 205 colon; SR leukemia; MALME-3M melanoma; SW-620 colon; OVCAR-4 ovarian; CAKI-1 renal; HL-60(TB) leukemia; SN12C renal; UO-31 renal; TK-10 renal.
Holding throughout (assay): NCI anticancer screen, dose series, 48 h

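How tested: cells in 96-well plates exposed to compound for 48 hours at five concentrations. GI50 is the concentration that inhibits growth by half. Definition used: TGI = concentration required for complete inhibition of growth.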 Where a SMILES comes first, the peptide text is derived from it. [ ]: non-standard residue; d: D form. The star is where a group is joined. ξ: configuration not given here. X6 = FC(F)(F)c1cc(NC(=S)*)cc(C(F)(F)F)c1; ξF = NC(Cc1ccccc1)C(=O)O

Take `Cc1ccc2c(=O)cc(-c3ccc(F)cc3)[nH]c2n1`: the TGI was 47.9 µM with COLO 205 colon; 34.4 µM in the test on SR leukemia; greater than 100 µM in the test on MALME-3M melanoma; greater than 100 µM in the test on SW-620 colon; greater than 100 µM with OVCAR-4 ovarian; greater than 100 µM with CAKI-1 renal. The TGI was 34.3 µM with HL-60(TB) leukemia, greater than 100 µM with SN12C renal, greater than 100 µM in the test with UO-31 renal and greater than 100 µM in the test with TK-10 renal.
On to `Cc1nc2ccccc2c(=O)n1-c1ccccc1I`, for which the TGI with COLO 205 colon, with SR leukemia, in the test on MALME-3M melanoma, with SW-620 colon, in the test on OVCAR-4 ovarian and with CAKI-1 renal was greater than 100 µM each time. Besides, the TGI in the test on HL-60(TB) leukemia, in the test on SN12C renal, in the test with UO-31 renal and with TK-10 renal was greater than 100 µM in each case.
In the case of `O=S(=O)(NC1=NCCN1C(=S)SN1CCn2c1nsc2=S)c1ccc(OC(F)(F)F)cc1`, the GI50 was 10.7 µM in the test with COLO 205 colon; 1.74 µM in the test with SR leukemia; 5.25 µM in the test with MALME-3M melanoma; 9.62 µM in the test on SW-620 colon; 14.6 µM in the test on OVCAR-4 ovarian; 17.5 µM in the test with CAKI-1 renal. Besides, the GI50 with HL-60(TB) leukemia is 2.88 µM; in the test with SN12C renal it was 14.5 µM; in the test with UO-31 renal, 20.5 µM; in the test on TK-10 renal, 11.3 µM. For the same molecule, the TGI came to 28.2 µM with COLO 205 colon; 5.76 µM in the test on SR leukemia; 32.7 µM in the test on MALME-3M melanoma; 24.3 µM in the test on SW-620 colon; 31.6 µM with OVCAR-4 ovarian; 74.5 µM with CAKI-1 renal. Further, the TGI with HL-60(TB) leukemia amounted to 7.35 µM; in the test with SN12C renal, 30.3 µM; in the test on UO-31 renal, 41.5 µM; in the test with TK-10 renal it was 24.6 µM.
Regarding `O=C(CC1(O)C(=O)Nc2c(Cl)cc(Cl)cc21)c1ccc(Br)cc1Br` (stereo not given), the TGI in the test with COLO 205 colon was 16.9 µM; in the test with SR leukemia it was greater than 22 µM; in the test with MALME-3M melanoma it was 23.7 µM; with SW-620 colon, 10.7 µM; in the test with OVCAR-4 ovarian it was 29.5 µM; in the test on CAKI-1 renal, 16.2 µM. Moreover, the TGI with HL-60(TB) leukemia was found to be 18.1 µM; with SN12C renal, 28.5 µM; in the test on UO-31 renal it was 29.5 µM; with TK-10 renal, 32 µM.
Consider `CN/N=C(/Cc1occc(=O)c1O)C(=O)Nc1ccccc1C`, for which the TGI with COLO 205 colon, in the test on SR leukemia, in the test with MALME-3M melanoma, in the test on SW-620 colon, in the test with OVCAR-4 ovarian and in the test with CAKI-1 renal was greater than 100 µM throughout. The TGI with HL-60(TB) leukemia, in the test with SN12C renal, with UO-31 renal and in the test with TK-10 renal was greater than 100 µM each time.
As to `c1ccc2cc(-c3cc(-c4cc(-c5ccc6ccccc6c5)on4)no3)ccc2c1`, the TGI in the test with COLO 205 colon, in the test on SR leukemia, with MALME-3M melanoma, with SW-620 colon, with OVCAR-4 ovarian and in the test on CAKI-1 renal was greater than 100 µM each time. Besides, the TGI with HL-60(TB) leukemia, with SN12C renal, with UO-31 renal and in the test with TK-10 renal was greater than 100 µM each time.
For the molecule `Cc1ccc(NC2=C(Cl)C(=O)N(Cc3ccccc3)C2=O)cc1O`, the GI50 was 49 µM with COLO 205 colon; 6.91 µM in the test on SR leukemia; 24.1 µM in the test on MALME-3M melanoma; 39.2 µM in the test with SW-620 colon; 79.3 µM in the test with OVCAR-4 ovarian; 28.1 µM in the test on CAKI-1 renal. The GI50 with HL-60(TB) leukemia was 6.45 µM; in the test with SN12C renal, 25.6 µM; in the test with UO-31 renal, 82.2 µM; with TK-10 renal it was 31.3 µM. The TGI with COLO 205 colon, in the test with SR leukemia, in the test with MALME-3M melanoma, in the test on SW-620 colon, in the test with OVCAR-4 ovarian and in the test with CAKI-1 renal was greater than 100 µM each time. Moreover, the TGI was greater than 100 µM in the test on HL-60(TB) leukemia, 93.8 µM in the test with SN12C renal, greater than 100 µM in the test on UO-31 renal and greater than 100 µM in the test on TK-10 renal.
On to `COC(=O)[C@@H](NC(=O)CNC(=O)[C@H]1CCCN1C(=O)C(Cc1ccccc1)NC(=S)Nc1cc(C(F)(F)F)cc(C(F)(F)F)c1)C(C)C` (stereo not given in full) (X6-[ξF][dP]GV-OMe), for which the GI50 was 1.87 µM in the test with COLO 205 colon; 2.57 µM in the test with SR leukemia; 3.88 µM in the test with MALME-3M melanoma; 3.72 µM in the test on SW-620 colon; 3.17 µM in the test with OVCAR-4 ovarian; 2.71 µM in the test on CAKI-1 renal. Further, the GI50 is 3.58 µM in the test with HL-60(TB) leukemia, 1.85 µM in the test on SN12C renal, 2.91 µM in the test with UO-31 renal and 4.45 µM with TK-10 renal. Further, the TGI in the test with COLO 205 colon was determined as 3.32 µM; in the test with SR leukemia it was 8.58 µM; in the test with MALME-3M melanoma, 15.1 µM; with SW-620 colon, 24.5 µM; in the test with OVCAR-4 ovarian, 17.6 µM; with CAKI-1 renal, 10.5 µM. Further, the TGI in the test with HL-60(TB) leukemia is 12.7 µM; in the test on SN12C renal, 4.26 µM; in the test on UO-31 renal, 13.9 µM; in the test on TK-10 renal, 18.8 µM.
Regarding `NC(=O)c1cccc2cn(-c3ccc([C@@H]4CCCNC4)cc3)nc12`, the GI50 with COLO 205 colon was 13.5 µM; in the test with SR leukemia, 1.94 µM; in the test with MALME-3M melanoma, 15.2 µM; with SW-620 colon, 10.4 µM; in the test with OVCAR-4 ovarian, 16.6 µM; in the test on CAKI-1 renal it was 5.77 µM. The GI50 was 15.7 µM in the test with HL-60(TB) leukemia, 9.15 µM with SN12C renal, 11.3 µM in the test on UO-31 renal and 24.1 µM with TK-10 renal. Further, the TGI in the test on COLO 205 colon came out at 28.6 µM; in the test with SR leukemia it was 12.5 µM; in the test with MALME-3M melanoma, 30.5 µM; in the test with SW-620 colon, 51.3 µM; in the test with OVCAR-4 ovarian, 41.5 µM; with CAKI-1 renal, 20.2 µM. Moreover, the TGI with HL-60(TB) leukemia came out at 34.6 µM; in the test with SN12C renal it was 56.8 µM; with UO-31 renal, 25.2 µM; in the test on TK-10 renal, 63.2 µM.
Take `O=C(/C=C/c1ccccc1)NC1C=Nc2ccc(Cl)cc2NC1=O` (stereo not given): the TGI is 33.9 µM in the test with COLO 205 colon; 56.3 µM with SR leukemia; 85.1 µM in the test on MALME-3M melanoma; 24.2 µM in the test with SW-620 colon; greater than 100 µM with OVCAR-4 ovarian; greater than 100 µM with CAKI-1 renal. In addition, the TGI in the test with HL-60(TB) leukemia is 30.3 µM; in the test on SN12C renal it was greater than 100 µM; with UO-31 renal it was 87.8 µM; in the test with TK-10 renal it was greater than 100 µM.

Values taken from PubChem BioAssay (NCI).
